These results are taken from patent US12564638B2 (SHANGHAITECH UNIVERSITY, priority 2019, dated 2026).

In assay [1] the test system is HCC827 cells (EGFR Exon19 del, non-small cell lung cancer cells). The assay can be described thus: Cell viability assay (WST/CCK8), HCC827 cells. In kind it is cell-based. The settings on record: Homo sapiens, HCC827, 72 h, HCC827 (Exon19 Del), 72 hours, WST (CCK8); read-out: IC50 (half inhibitory concentration). Summed up: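 Cells seeded at 3 000/well in RPMI1640 complete medium, dosed next day with compounds (top 10 μM, 3-fold, 10 points) for 72 h. Viability read with WST (CCK8) reagent; DMSO as negative control, EGFR TKIs as positive controls; IC50 determined.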

The subject of assay [2] is PC9 cells (EGFR Exon 19 del, non-small cell lung cancer cells). The assay can be described thus: Cell viability assay (WST/CCK8), PC9 cells. In kind it is cell-based. Particulars: Homo sapiens, PC-9; PC9 (Exon19 Del), 72 hours, WST (CCK8); read-out: IC50 (half inhibitory concentration). The source says: The cell lines with abnormal EGFR expression used are as follows: • HCC827 cells (EGFR Exon19 del, non-small cell lung cancer cells); • PC9 cells (EGFR Exon 19 del, non-small cell lung cancer cells); • PC9BracA1 (EGFR Exon 19 del+T790M, non-small cell lung cancer cells) • H1975 (EGFR Exon T790M+L858R mutation, non-small cell lung cancer cell line) • BT474 cells (HER2 positive breast cancer cells)
All of the half inhibitory concentrations (IC50) of these compounds of the present invention were determined with WST reagent from Fuyuan Biotec Company. The specific experiment procedures are as follows: Cancer cells were planted in 96-well-plate at the density of 3 000 cells per well with 100 μL RPMI1640 completed culture medium. In the next day, compounds with indicated concentrations were added to the cells, DMSO was used as the negative control and the EGFR TKIs were used to treat cells as the positive groups. After 72 hours drug treatment, cell viability was measured by using the WST reagent following the instructions.
The cells were treated with the gradient concentration of these compounds (the maximum concentration: 10 μM; 3-fold dilution ratio, 10 concentration gradients) for 72 hours and then incubated with the WST (CCK8) reagent to determine the cell viability.

With `COc1cc2ncnc(Nc3ccc(F)c(Cl)c3)c2cc1NC(=O)/C=C/CN1CCN(C(=O)CCSc2cccc3c2CN(C2CCC(=O)NC2=O)C3=O)CC1` (centres unmarked) [SIAIS219186, (E)-N-(4-((3-chloro-4-fluorophenyl)amino)-7-methoxyquinazolin-6-yl)-4-(4-(3-((2-(2,6-dioxopiperidin-3-yl)-1-oxoisoindolin-4-yl)thio)propanoyl)piperazin-1-yl)but-2-enamide], the figures for the IC50 in assay [1] and in assay [2] were 6 nM and 21.7 nM, respectively.

Consider `COc1cc2ncnc(Nc3ccc(F)c(Cl)c3)c2cc1NC(=O)/C=C/CN1CCN(C(=O)CCCSc2cccc3c2CN(C2CCC(=O)NC2=O)C3=O)CC1` (centres unmarked) [SIAIS219187, (E)-N-(4-((3-chloro-4-fluorophenyl)amino)-7-methoxyquinazolin-6-yl)-4-(4-(4-((2-(2,6-dioxopiperidin-3-yl)-1-oxoisoindolin-4-yl)thio)butanoyl)piperazin-1-yl)but-2-enamide], for which the IC50 in assay [1] was 6.7 nM; in assay [2] it was 33.3 nM.

With `COc1cc2ncnc(Nc3ccc(F)c(Cl)c3)c2cc1NC(=O)/C=C/CN1CCN(C(=O)CCCCSc2cccc3c2CN(C2CCC(=O)NC2=O)C3=O)CC1` (centres unmarked) [SIAIS219188, (E)-N-(4-((3-chloro-4-fluorophenyl)amino)-7-methoxyquinazolin-6-yl)-4-(4-(5-((2-(2,6-dioxopiperidin-3-yl)-1-oxoisoindolin-4-yl)thio)pentanoyl)piperazin-1-yl)but-2-enamide], the IC50 was 3.1 nM in assay [1] and 25.1 nM in assay [2].

On to `COc1cc2ncnc(Nc3ccc(F)c(Cl)c3)c2cc1NC(=O)/C=C/CN1CCN(C(=O)CCCCCSc2cccc3c2CN(C2CCC(=O)NC2=O)C3=O)CC1` (centres unmarked) [SIAIS219189, (E)-N-(4-((3-chloro-4-fluorophenyl)amino)-7-methoxyquinazolin-6-yl)-4-(4-(6-((2-(2,6-dioxopiperidin-3-yl)-1-oxoisoindolin-4-yl)thio)hexanoyl)piperazin-1-yl)but-2-enamide], for which the IC50 in assay [1] is 3.8 nM; in assay [2], 9.2 nM.

With `COc1cc2ncnc(Nc3ccc(F)c(Cl)c3)c2cc1NC(=O)/C=C/CN1CCN(C(=O)CCCCCCSc2cccc3c2CN(C2CCC(=O)NC2=O)C3=O)CC1` (centres unmarked) [SIAIS219190, (E)-N-(4-((3-chloro-4-fluorophenyl)amino)-7-methoxyquinazolin-6-yl)-4-(4-(7-((2-(2,6-dioxopiperidin-3-yl)-1-oxoisoindolin-4-yl)thio)heptanoyl)piperazin-1-yl)but-2-enamide], the values for the IC50 in assay [1] and in assay [2] were 18.6 nM and 7.2 nM, respectively.

As for `COc1cc2ncnc(Nc3ccc(F)c(Cl)c3)c2cc1NC(=O)/C=C/CN1CCN(C(=O)COCCSc2cccc3c2C(=O)N(C2CCC(=O)NC2=O)C3=O)CC1` (centres unmarked) [SIAIS219192, (E)-N-(4-((3-chloro-4-fluorophenyl)amino)-7-methoxyquinazolin-6-yl)-4-(4-(2-(2-((2-(2,6-dioxopiperidin-3-yl)-1,3-dioxoisoindolin-4-yl)thio)ethoxy)acetyl)piperazin-1-yl)but-2-enamide], the IC50 in assay [1] came out at 16.4 nM; in assay [2], 8.9 nM.

For the compound `COc1cc2ncnc(Nc3ccc(F)c(Cl)c3)c2cc1NC(=O)/C=C/CN1CCN(C(=O)COCCSc2cccc3c2CN(C2CCC(=O)NC2=O)C3=O)CC1` (centres unmarked) [SIAIS219193, (E)-N-(4-((3-chloro-4-fluorophenyl)amino)-7-methoxyquinazolin-6-yl)-4-(4-(2-(2-((2-(2,6-dioxopiperidin-3-yl)-1-oxoisoindolin-4-yl)thio)ethoxy)acetyl)piperazin-1-yl)but-2-enamide], the IC50 in assay [1] worked out at 2.2 nM; in assay [2], 43.6 nM.

Take `COc1cc2ncnc(Nc3ccc(F)c(Cl)c3)c2cc1NC(=O)/C=C/CN1CCN(C(=O)CNc2cccc3c2C(=O)N(C2CCC(=O)NC2=O)C3=O)CC1` (centres unmarked) [SIAIS219194, (E)-N-(4-((3-chloro-4-fluorophenyl)amino)-7-methoxyquinazolin-6-yl)-4-(4-(2-((2-(2,6-dioxopiperidin-3-yl)-1,3-dioxoisoindolin-4-yl)amino)acetyl)piperazin-1-yl)but-2-enamide]: the IC50 was found to be 5.3 nM in assay [1] and 4 nM in assay [2].

In the case of `COc1cc2ncnc(Nc3ccc(F)c(Cl)c3)c2cc1NC(=O)/C=C/CN1CCN(C(=O)CSc2cccc3c2C(=O)N(C2CCC(=O)NC2=O)C3=O)CC1` (centres unmarked) [SIAIS249034, (E)-N-(4-((3-chloro-4-fluorophenyl)amino)-7-methoxyquinazolin-6-yl)-4-(4-(2-((2-(2,6-dioxopiperidin-3-yl)-1,3-dioxoisoindolin-4-yl)thio)acetyl)piperazin-1-yl)but-2-enamide], the IC50 is 23 nM in assay [1] and 167 nM in assay [2].

Consider `COc1cc2ncnc(Nc3ccc(F)c(Cl)c3)c2cc1NC(=O)/C=C/CN1CCN(C(=O)CCSc2cccc3c2C(=O)N(C2CCC(=O)NC2=O)C3=O)CC1` (centres unmarked) [SIAIS249035, (E)-N-(4-((3-chloro-4-fluorophenyl)amino)-7-methoxyquinazolin-6-yl)-4-(4-(3-((2-(2,6-dioxopiperidin-3-yl)-1,3-dioxoisoindolin-4-yl)thio)propanoyl)piperazin-1-yl)but-2-enamide], for which the IC50 in assay [1] stood at 10 nM; in assay [2], 56.5 nM.

With `COc1cc2ncnc(Nc3ccc(F)c(Cl)c3)c2cc1NC(=O)/C=C/CN1CCN(C(=O)CCCSc2cccc3c2C(=O)N(C2CCC(=O)NC2=O)C3=O)CC1` (centres unmarked) [SIAIS249036, (E)-N-(4-((3-chloro-4-fluorophenyl)amino)-7-methoxyquinazolin-6-yl)-4-(4-(4-((2-(2,6-dioxopiperidin-3-yl)-1,3-dioxoisoindolin-4-yl)thio)butanoyl)piperazin-1-yl)but-2-enamide], the IC50 in assay [1] was 8.1 nM; in assay [2] it was 47.7 nM.

Take `COc1cc2ncnc(Nc3ccc(F)c(Cl)c3)c2cc1NC(=O)/C=C/CN1CCN(C(=O)CCCCSc2cccc3c2C(=O)N(C2CCC(=O)NC2=O)C3=O)CC1` (centres unmarked) [SIAIS249037, (E)-N-(4-((3-chloro-4-fluorophenyl)amino)-7-methoxyquinazolin-6-yl)-4-(4-(5-((2-(2,6-dioxopiperidin-3-yl)-1,3-dioxoisoindolin-4-yl)thio)pentanoyl)piperazin-1-yl)but-2-enamide]: the IC50 in assay [1] worked out at 6.6 nM; in assay [2], 28.7 nM.

On to `COc1cc2ncnc(Nc3ccc(F)c(Cl)c3)c2cc1NC(=O)/C=C/CN1CCN(C(=O)CCCCCSc2cccc3c2C(=O)N(C2CCC(=O)NC2=O)C3=O)CC1` (centres unmarked) [SIAIS249038, (E)-N-(4-((3-chloro-4-fluorophenyl)amino)-7-methoxyquinazolin-6-yl)-4-(4-(6-((2-(2,6-dioxopiperidin-3-yl)-1,3-dioxoisoindolin-4-yl)thio)hexanoyl)piperazin-1-yl)but-2-enamide], for which the results for the IC50 in assay [1] and in assay [2] were 4.7 nM and 22.9 nM, respectively.

For `COc1cc2ncnc(Nc3ccc(F)c(Cl)c3)c2cc1NC(=O)/C=C/CN1CCN(C(=O)CCCCCCSc2cccc3c2C(=O)N(C2CCC(=O)NC2=O)C3=O)CC1` (centres unmarked) [SIAIS249039, (E)-N-(4-((3-chloro-4-fluorophenyl)amino)-7-methoxyquinazolin-6-yl)-4-(4-(7-((2-(2,6-dioxopiperidin-3-yl)-1,3-dioxoisoindolin-4-yl)thio)heptanoyl)piperazin-1-yl)but-2-enamide], the IC50 in assay [1] came to 5.2 nM; in assay [2] it was 18.7 nM.

For the compound `COc1cc2ncnc(Nc3ccc(F)c(Cl)c3)c2cc1NC(=O)/C=C/CN1CCN(C(=O)CCC(=O)N[C@H](C(=O)N2C[C@H](O)C[C@H]2C(=O)NCc2ccc(-c3scnc3C)cc2)C(C)(C)C)CC1` [SIAIS249041, (2S,4R)-1-((S)-2-(4-(4-((E)-4-((4-((3-chloro-4-fluorophenyl)amino)-7-methoxyquinazolin-6-yl)amino)-4-oxobut-2-en-1-yl)piperazin-1-yl)-4-oxobutanamido)-3,3-dimethylbutanoyl)-4-hydroxy-N-(4-(4-methylthiazol-5-yl)benzyl)pyrrolidine-2-carboxamide], the IC50 in assay [1] was determined as 38.3 nM; in assay [2] it was 99 nM.

For `COc1cc2ncnc(Nc3ccc(F)c(Cl)c3)c2cc1NC(=O)/C=C/CN1CCN(C(=O)CCCCCCC(=O)N[C@H](C(=O)N2C[C@H](O)C[C@H]2C(=O)NCc2ccc(-c3scnc3C)cc2)C(C)(C)C)CC1` [SIAIS249043, (2S,4R)-1-((S)-2-(8-(4-((E)-4-((4-((3-chloro-4-fluorophenyl)amino)-7-methoxyquinazolin-6-yl)amino)-4-oxobut-2-en-1-yl)piperazin-1-yl)-8-oxooctanamido)-3,3-dimethylbutanoyl)-4-hydroxy-N-(4-(4-methylthiazol-5-yl)benzyl)pyrrolidine-2-carboxamide], the results for the IC50 in assay [1] and in assay [2] were 19.3 nM and 70.6 nM, respectively.
